Assay results: ChEMBL document CHEMBL3045125, “Isolation and Insecticidal Activity of Three Acetogenins from Seeds of Pond Apple, Annona glabra L” (1991)
Activity calls are given as the source filed them. The calls are words filed in the database; no cut-off is given here.

Key:
Callosobruchus chinensis [1] = test: Insecticidal activity against adult of Callosobruchus chinensis assessed as mortality at 0.5 ug/insect applied topically after 24 hr relative to control; type: functional
Callosobruchus chinensis [2] = test: Insecticidal activity against adult of Callosobruchus chinensis assessed as mortality at 5 ug/insect applied topically after 24 hr relative to control; type: functional
Callosobruchus chinensis [3] = test: Insecticidal activity against adult of Callosobruchus chinensis assessed as mortality at 0.1 ug/insect applied topically after 24 hr relative to control; type: functional
Callosobruchus chinensis [4] = test: Insecticidal activity against adult of Callosobruchus chinensis assessed as mortality at 1 ug/insect applied topically after 24 hr relative to control; type: functional
Nephotettix cincticeps = test: Insecticidal activity against 2nd-instar nymphs of Nephotettix cincticeps (green rice leafhopper) in rice seedlings assessed as lethality at 10 mg/ml after 1 week; type: functional, organism-based
Crocidolomia = test: Insecticidal activity against second-instar larvae of Crocidolomia binotalis in cabbage leaf assessed as growth inhibition at 10 mg/ml after 2 days; type: functional, organism-based
Plutella xylostella = test: Insecticidal activity against 2nd-instar larvae of Plutella xylostella (diamondback moth) in cabbage leaf assessed as lethality and growth inhibition at 0.1 mg/ml after 2 days; type: functional, organism-based
Tetranychus urticae = test: Insecticidal activity against adult of Tetranychus urticae (two-spotted spider mite) in kidney bean leaf assessed as egg hatching ability after 1 week; type: functional, organism-based
Mamestra brassicae = test: Insecticidal activity against third-instar larvae of Mamestra brassicae in cabbage leaf assessed as feeding deterrent and growth inhibition at 10 mg/ml after 2 days; type: functional, organism-based
[5] = system: Henosepilachna vigintioctopunctata; test: Insecticidal activity against second-instar larvae of Henosepilachna vigintioctopunctata assessed as lethality at 10 mg/ml measured everyday for 1 week; type: functional, organism-based

SMILES	Activity (Callosobruchus chinensis [1])	Activity (Callosobruchus chinensis [2])	Activity (Callosobruchus chinensis [3])	Activity (Callosobruchus chinensis [4])	Activity (Nephotettix cincticeps)	Activity (Crocidolomia)	Activity (Plutella xylostella)	Activity (Tetranychus urticae)	Activity (Mamestra brassicae)	Activity [5]
CCCCCCCCCCC(O)C1CCC(C2CCC(C(O)CCCCCCCC[C@H](O)CC3=C[C@@H](C)OC3=O)O2)O1 (stereo partly drawn) [ASIMICIN]	60%	100%	15%	85%	–	–	–	–	–	–
CCCCCCCCCC[C@H](O)[C@H]1CC[C@H]([C@H]2CC[C@H]([C@H](O)CCCCCCCCCCCCC3=C[C@H](C)OC3=O)O2)O1 [BULLANIN]	10%	90%	0%	25%	–	–	–	–	–	–
CCCCCC[C@H](O)CCC[C@H](O)[C@H]1CC[C@H]([C@H]2CC[C@H]([C@H](O)CCCCCCCCCCCCC3=C[C@H](C)OC3=O)O2)O1 [SQUAMOCIN]	20%	90%	0%	29%	Active	Active	Active	inactive	Active	Active
